Measured values taken from patent US7026314B2, “Therapeutic chromone compounds” (AstraZeneca AB, priority 2001, dated 2006).

How the values were obtained:
[1] = test system: guinea pigs; test: learned helplessness test in guinea pigs; type: in vivo; conditions: guinea pig
Description: The utility of the compounds for example to treat depression may be shown via a learned helplessness test in guinea pigs, which is used extensively as correlative to antidepressant activity in humans. The learned helplessness test may be carried out as follows: Seventy male Hartley guinea pigs, each weighing about 350–425 gm are fed ad lib, and are housed under a 12-hour light/dark cycle. The procedure consists of two phases: The induction phase and the avoidance training phase. In the induction phase, subjects are placed into standard shuttle cages (20 L×16 W×21 centimeters H) which are fitted with a grid floor. Electrical stimulation (1.25 mA, 10 sec duration) is delivered to the floor of the cage every 90-sec during 1 hour daily sessions. Subjects have no opportunity to escape or to avoid shocks. Induction is conducted for 2 consecutive days.
In avoidance training, testing is also conducted in the shuttle cages, except that the subjects are not returned to the same chamber in which induction had occurred. Additionally, all cages are fitted with a partition with an arch in the center of the cage, through which animals can pass between the left and right halves of the cage. The procedure employed is a standard shuttle avoidance procedure in which a compound, conditioned stimulus (a 10-sec presentation of a tone and turning on of a lamp on the side of the cage that the guinea pig was occupying) serves to indicate presentation of electrical current to the floor of the cage. Shock is presented for a 5 sec period, 5 sec after initiation of the conditioned stimulus. Entry into the opposite side of the shuttle cage via the arched partition prior to shock onset results in the end of the trial (avoidance response). If shock is delivered, entry into the opposite side of the cage results in termination of the shock and CS (escape). Reversal of learned helplessness in the induction subjects correlates to antidepressant activity of the test compound.
Avoidance training, 45-min in duration, is conducted on 2 consecutive days, beginning 48 hr after the final induction session. Seventy subjects are assigned to 1 of 6 groups of 11–12 animals. The groups are as follows:
Groups 2–6 are given induction and avoidance training sessions. Injections are administered immediately following induction sessions and 1 hour prior to avoidance training sessions. A second injection is administered 7–8 hours following the first injection, for a total of 9 injections administered over 5 days. No injections are administered following the final avoidance training session.
Compounds of the present invention may be administered in a volume of 1 mL/kg bwt. Imipramine is dissolved in DI water. The compounds are dissolved in DI water, to which was added a few drops of lactic acid (pH 5.5). […]

[2] = biological target: 5-HT1B and 5HT1D receptors; conditions: saturation studies, guinea pig cortex membranes; read-out: Kd value of [3H]GR125743; cited from earlier work
[3] = biological target: T1, 5-HT1B receptors (Homo sapiens, UniProt P28222); test: 5-HT1b binding assay, competition with [3H]-GR125743 on CHO cell membranes; conditions: CHO membranes expressing 5-HT1B and 5-HT1D receptors
T1 construct: expressed in transfected cells; host or cells: CHO (stably transfected), frozen membrane preparations
T1 sequence (P28222 whole entry): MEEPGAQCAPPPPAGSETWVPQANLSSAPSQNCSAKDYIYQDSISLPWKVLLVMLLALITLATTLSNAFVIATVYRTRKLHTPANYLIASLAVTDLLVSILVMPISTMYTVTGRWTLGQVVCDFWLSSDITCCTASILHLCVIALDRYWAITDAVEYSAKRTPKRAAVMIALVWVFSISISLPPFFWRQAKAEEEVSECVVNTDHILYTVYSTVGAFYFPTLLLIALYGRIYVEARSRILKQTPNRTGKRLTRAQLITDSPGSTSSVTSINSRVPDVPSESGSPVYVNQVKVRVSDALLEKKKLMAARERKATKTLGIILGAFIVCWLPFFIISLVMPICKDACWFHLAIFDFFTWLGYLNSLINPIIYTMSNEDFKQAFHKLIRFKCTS
Description: Other assays that may be used to measure for example affinity of compounds of the present invention for 5HT1B and 5HT1D receptors are described in J. Med. Chem 41:1218–1235, 1228 (1998) and J. Med. Chem 42:4981–5001, (1999) and incorporated by reference herein. These assays may be used with some modifications: Frozen membrane preparations of a stably transfected chinese hamster ovary (CHO) cell line expressing 5-HT1B receptors and 5-HT1D receptors are thawed rapidly, briefly vortexed, and diluted in assay buffer (AB) containing 50 mM Tris-HCl, 4 mM MgCl2, 4mM CaCl2, 1 mM EDTA, and adjusted to pH 7.4 with NaOH. Final protein concentrations are −0.185 mg/ml for 5-HT1B, and 0.4 mg/ml for 5-HT1D membranes. Test compounds are evaluated in competition assays using [^3H]-GR125743 (Amersham). The ligand concentration in both assays was 0.27 nM. […] The 5-HT1B and 5-HT1D assays are performed simultaneously on one 96-well assay plate, one drug/compound per plate. Ten serial dilutions (1 uM to 4 pM, final concentration) of compound are prepared in DMSO from 10 mM stock solutions. Incubation mixtures are prepared in quadruplicate in 96-deep well assay plates (Matrix 1 ml). […] The plates are then counted on a Packard TopCount to determine CPM's per well. Ki values are determined for each test compound utilizing the graphic and analytical software package, GraphPad Prism. […]

CN1CCN(c2cccc3c2OC(C(=O)Nc2ccc(N4CCOCC4)cc2)CC3)CC1 (racemic) [Example 75, 8-(4-Methyl-piperazin-1-yl)-chroman-2-carboxylic acid(4-morpholin-4-yl-phenyl)-amide]
melting point: 215 to 216 °C

CN1CCN(c2cccc3c2OC(C(=O)Nc2ccc(N4CCOCC4)cc2)CC3=O)CC1 (racemic) [Example 78, racemic-8-(4-methyl-piperazin-1-yl)-4-oxo-chroman-2-carboxylicacid (4-morpholin-4-yl-phenyl)-amide]
melting point: 215 to 216 °C

CN1CCN(c2cccc3c2OC(C(=O)Nc2ccc(N4CCOCC4)cc2)CC3=O)CC1 (single isomer, unassigned) [Example 79, 8-(4-Methyl-piperazin-1-yl)-4-oxo-chroman-2-carboxylic acid (4-morpholin-4-yl-phenyl)-amide(fasterrunning isomer)]
melting point: 216 °C (dec.)

CN1CCN(c2cccc3c2OC(C(=O)Nc2ccc(N4CCOCC4)cc2)CC3=O)CC1 (single isomer, unassigned) [Example 80, 8-(4-Methyl-piperazin-1-yl)-4-oxo-chroman-2-carboxylic acid (4-morpholin-4-yl-phenyl)-amide(slowerrunning isomer).]
melting point: 215 °C (dec.)

CN1CCN(c2cccc3c2OC(C(=O)Nc2ccc(N4CCOCC4)cc2)CC3)CC1 (single isomer, unassigned; (+)) [Example 76, (+)-8-(4-Methyl-piperazin-1-yl)-chroman-2-carboxylic acid (4-morpholin-4-yl-phenyl)-amide]
melting point: 206 to 207 °C

CN1CCN(c2cccc3c2OC(C(=O)Nc2ccc(N4CCOCC4)cc2)CC3)CC1 (single isomer, unassigned; (-)) [Example 77, (−)-8-(4-Methyl-piperazin-1-yl)-chroman-2-carboxylic acid (4-morpholin-4-yl-phenyl)-amide]
melting point: 205.5 to 207 °C

CN1CCN(c2cccc3c(=O)cc(C(=O)Nc4ccc(N5CCOCC5)cc4)oc23)CC1 [Example 1, 8-(4-methyl-1-piperazinyl)-N-[4-(4-morpholinyl)phenyl]-4-oxo-4H-chromene-2-carboxamide]
melting point: 217 to 218 °C (dec.)

CN1CCN(c2cccc3c(=O)cc(-c4nc5ccc(N6CCOCC6)cc5o4)oc23)CC1 [Example 21, 8-(4-Methyl-piperazin-1-yl)-2-(6-morpholin-4-yl-benzooxazol-2-yl)-chromen-4-one]
melting point: 158.1 to 158.8 °C

CN1CCN(c2cccc3c(=O)cc(C(=O)Nc4ccc(N5CCOCC5)cc4O)oc23)CC1 [Example 22, 8-(4-Methyl-piperazin-1-yl)-4-oxo-4H-chromene-2-carboxylic acid (2-hydroxy-4-morpholin-4-yl-phenyl)-amide]
melting point: 248.4 to 249.6 °C

COc1cc(N2CCN(C)CC2)c2oc(C(=O)Nc3ccc(N4CCOCC4)cc3)cc(=O)c2c1 [Example 31, 6-Methoxy-8-(4-methyl-piperazin-1-yl)-4-oxo-4H-chromene-2-carboxylic acid (4-morpholin-4-yl-phenyl)-amide]
activity in the learned helplessness assay for antidepressant/antianxiety activity [1]: demonstrate activity | melting point: 234 to 236 °C

CCC(=O)N1CCN(c2ccc(NC(=O)c3cc(=O)c4cc(OC)cc(N5CCN(C)CC5)c4o3)cc2)CC1 [Example 44, 6-Methoxy-8-(4-methyl-piperazin-1-yl)-4-oxo-4H-chromene-2-carboxylic acid [4-(4-propionyl-piperazin-1-yl)-phenyl]-amide]
activity in the learned helplessness assay for antidepressant/antianxiety activity [1]: demonstrate activity

COc1cc(N2CCN(C)CC2)c2oc(C(=O)Nc3ccc(N4CCN(C(=O)CCO)CC4)cc3)cc(=O)c2c1 [Example 68, 6-Methoxy-8-(4-methyl-piperazin-1-yl)-4-oxo-4H-chromene-2-carboxylic acid {4-[4-(3-hydroxy-propanoyl)-piperazin-1-yl]-phenyl}-amide]
melting point: 195 to 197 °C

CCS(=O)(=O)N1CCN(c2ccc(NC(=O)c3cc(=O)c4cc(F)cc(N5CCN(C)CC5)c4o3)cc2)CC1 [Example 71, 6-Fluoro-8-(4-methyl-piperazin-1-yl)-4-oxo-4H-chromene-2-carboxylic acid [4-(4-ethanesulfonyl-piperazin-1-yl)-phenyl]-amide]
activity in the learned helplessness assay for antidepressant/antianxiety activity [1]: demonstrate activity | melting point: 233 to 234 °C

CCC(=O)N1CCN(c2ccc(NC(=O)c3cc(=O)c4cc(F)cc(N5CCN(C)CC5)c4o3)cc2)CC1 [Example 72, 6-Fluoro-8-(4-methyl-piperazin-1-yl)-4-oxo-4H-chromene-2-carboxylic acid [4-(4-propionyl-piperazin-1-yl)-phenyl]-amide]
activity in the learned helplessness assay for antidepressant/antianxiety activity [1]: demonstrate activity

CN1CCN(c2cc(F)cc3c(=O)cc(C(=O)Nc4ccc(N5CCN(C(=O)CCO)CC5)cc4)oc23)CC1 [Example 73, 6-Fluoro-8-(4-methyl-piperazin-1-yl)-4-oxo-4H-chromene-2-carboxylic acid {4-[4-(3-hydroxy-propanoyl)-piperazin-1-yl]-phenyl}-amide]
melting point: 195 to 199 °C

COc1ccc(NC(=O)c2ccc(-c3ccncc3)c(C)c2)cc1N1CCN(C)CC1 [[^3H]-GR125743]
Kd [2]: 0.046 ± 0.004 nM | Kd [3]: 0.15 to 0.25 nM
